Patent US20260034103A1, “COMPOSITIONS AND METHODS FOR IMPROVING MEMORY AND COGNITION” (priority 2022, published 2026)

Columns and labels:
[1] = tested on: adult subjects with major depressive disorder (MDD); experiment: Phase 2 clinical trial in MDD: HAM-D Item #17 Retardation; assay type: in vivo, human; conditions: 20 mg/day; for HAM-D Item #17 Retardation Change From Baseline, Max / HAM-D Item #17 Retardation Change From Baseline, Mean (SD) / HAM-D Item #17 Retardation Change From Baseline, Median / HAM-D Item #17 Retardation Change From Baseline, Min / HAM-D Item #17 Retardation score, Max / HAM-D Item #17 Retardation score, Mean (SD) / HAM-D Item #17 Retardation score, Median / HAM-D Item #17 Retardation score, Min: mITT, Females
Protocol: (§1) A Phase 2, multicenter, double-blind, randomized, placebo-controlled study of the safety and efficacy of SP-624 in the treatment of adult subjects with major depressive disorder (MDD) as defined by the Diagnostic and Statistical Manual of Mental Disorders, Fifth Edition (DSM-5) was carried out. Following the successful completion of a Screening Phase, subjects were randomized to one of two treatment groups in a 1:1 ratio and received Compound 1 (SP-624) or placebo over a treatment period of four weeks (Treatment Group #1: SP-624 20 mg/day; Treatment Group #2: Placebo).
(§2) Prior to initiating the 4-week treatment period, subjects completed a Screening/Baseline period of up to 28 days, during which time all screening assessments were performed, and any current depression medications discontinued. All screening assessments were completed before discontinuing any current depression medications. Subjects returned for a Baseline Visit to complete efficacy and safety assessments. During the treatment period, subjects returned to the investigative site to complete efficacy and safety assessments at the end of Weeks 1, 2, 3, and 4. After the final dose of study drug, subjects completed a follow-up period of two weeks and returned at the end of Weeks 5 and 6. Subjects may be treated with anti-depressant medications according to physician recommendations after completion of the Week 5 Visit.
(§3) Each dose of Compound 1 was supplied as two capsules, each containing 10 mg of active pharmaceutical ingredient (API). Matching placebo capsules identical in shape and color to the active capsules were used.
The second cognitive function measurement is HAM-D Item #17 Retardation (slowness of thought and speech, impaired ability to concentrate, decreased motor activity). The answer scale is: 0—Normal speech and thought; 1—Slight retardation at interview (mild psychomotor retardation); 2—Obvious retardation at interview (moderate, some difficulty with interview, noticeable pauses and slowness of thought); 3—Interview difficult (severe psychomotor retardation, very long pauses); 4—Complete stupor (extreme retardation, interview barely possible).

[2] = tested on: Sprague Dawley rat hippocampal slices; experiment: Ex vivo electrophysiology: paired-pulse ratio (short-term plasticity), CA1 with Schaffer collateral stimulation; assay type: cell-based; conditions: 10 nM and 100 nM; interstimulus intervals 50-400 ms; vs vehicle 0.01% DMSO
Protocol: Response is Stratum radiatum of area CA1 of the hippocampus with Schaffer collateral stimulation. Statistical differences correspond to the ones observed between Compound 1 10 nM and Vehicle groups.
Statistical differences correspond to the ones observed between Compound 1 100 nM and Vehicle groups.
(§4) The effect of compound 1 to enhance mEPSPs may be dependent on the influx of extracellular calcium.

[3] = tested on: rats; experiment: Freely behaving rodent model of long-term potentiation (LTP); assay type: in vivo, rat; conditions: 0.01 and 0.1 mg/kg IV
Protocol: Amplitudes of fEPSP are normalized to baseline and plotted against time.
A freely behaving rodent model of long-term potentiation (LTP), a frequently studied form of synaptic plasticity, was employed. LTP is a persistent increase in the strength of synaptic connections between neurons, and is a cellular mechanism widely considered to underlie the processes of learning and memory. At 0.01 and 0.1 mg/kg IV compound 1 increased LTP compared to vehicle controls (FIGS. 10-11).

[4] = tested on: adult subjects with major depressive disorder (MDD); experiment: Phase 2 clinical trial in MDD: QIDS-SR Item #10 Concentration/Decision Making; assay type: in vivo, human; design: key to QIDS-SR Item #10 score, Median / QIDS-SR Item #10 score, Min / QIDS-SR Item #10 score, Max: QIDS-SR Item 10 scored 0 (no change) to 3 (cannot concentrate/decide); conditions: 20 mg/day; for QIDS-SR Item #10 Change from Baseline, Max / QIDS-SR Item #10 Change from Baseline, Mean (SD) / QIDS-SR Item #10 Change from Baseline, Median / QIDS-SR Item #10 Change from Baseline, Min / QIDS-SR Item #10 score, Max / QIDS-SR Item #10 score, Mean (SD) / QIDS-SR Item #10 score, Median / QIDS-SR Item #10 score, Min: mITT, Females
Protocol: as §1, §2, §3
The study included several measurements related to cognitive function. The first is the QIDS-SR) Item #10 Concentration/Decision Making. The answer scale is: 0—There is no change in my usual capacity to concentrate or make decisions; 1—I occasionally feel indecisive or find that my attention wanders; 2—Most of the time, I struggle to focus my attention or to make decisions; 3—I cannot concentrate well enough to read or cannot make even minor decisions.

[5] = tested on: Sprague Dawley rat hippocampal slices; experiment: Ex vivo electrophysiology: short-lasting long-term potentiation (S-LTP) at hippocampal CA1 synapses; assay type: cell-based; conditions: 10 nM; single 1-sec train of 100-Hz stimulation
Text: Time-point 0 represents delivery of HFS. Slopes of fEPSP are normalized to baseline and plotted against time.
as §4

[6] = tested on: Long-Evans rats; experiment: Novel object recognition test, scopolamine-induced cognitive impairment; assay type: in vivo, rat; conditions: 0.1 and 1 mg/kg PO
Protocol: Total exploration time of two identical objects in the acquisition trial was measured manually and indicated as the mean±SEM (n=8). No statistical difference was found in the total exploration time among the different groups by one-way ANOVA (P=0.115).
NDI was calculated using the following equation: novel object interaction time/total interaction time×100(%). Data are represented as the mean±SEM (n=8). Significant difference from control group was indicated by ***P<0.001 (Student's t-test). Significant differences from scopolamine-treated vehicle group were indicated by ##P<0.01 (Dunnett test). Significant difference from scopolamine-treated vehicle group were indicated by †††P<0.001 (Student's t-test).
Exploration time of each object in retention trial was measured manually and presented as the mean±SEM (n=8). Significant differences from familiar object interaction were indicated by **P<0.01, *P<0.05 (paired t-test).
A novel object recognition test (which evaluates visual learning and memory) was conducted to investigate the effect of compound 1 on scopolamine-induced cognitive impairment in Long-Evans rats. Donepezil was used as a positive control. Scopolamine at 0.1 mg/kg SC reduced the novelty discrimination index (NDI) a measure of cognitive function (FIGS. 4-6).

**Q.** What does the source list for `COC1=CC(=O)C[C@@H](C)[C@]12Oc1c(Cl)c(-c3nnc(C)o3)cc(OC)c1C2=O` [Compound 1, (2S,6′R)-7-Chloro-2′,4-dimethoxy-6′-methyl-6-(5-methyl-1,3,4-oxadiazol-2-yl)-3H-spiro[1-benzofuran-2,1′-cyclohex[2]ene]-3,4′-dione]?
**A.** HAM-D Item #17 Retardation Change From Baseline, Max ([1]; Week 2): 2; HAM-D Item #17 Retardation Change From Baseline, Mean (SD) ([1]; Week 2): −0.2 (0.79); HAM-D Item #17 Retardation Change From Baseline, Median ([1]; Week 2): 0; HAM-D Item #17 Retardation Change From Baseline, Min ([1]; Week 2): −2; HAM-D Item #17 Retardation score, Max ([1]; Week 2): 2; HAM-D Item #17 Retardation score, Mean (SD) ([1]; Week 2): 0.6 (0.71); HAM-D Item #17 Retardation score, Median ([1]; Week 2): 0; HAM-D Item #17 Retardation score, Min ([1]; Week 2): 0; HAM-D Item #17 Retardation Change From Baseline, Max ([1]; Week 4): 1; HAM-D Item #17 Retardation Change From Baseline, Mean (SD) ([1]; Week 4): −0.4 (0.82); HAM-D Item #17 Retardation Change From Baseline, Median ([1]; Week 4): 0; HAM-D Item #17 Retardation Change From Baseline, Min ([1]; Week 4): −2; HAM-D Item #17 Retardation score, Max ([1]; Week 4): 2; HAM-D Item #17 Retardation score, Mean (SD) ([1]; Week 4): 0.4 (0.55); HAM-D Item #17 Retardation score, Median ([1]; Week 4): 0; HAM-D Item #17 Retardation score, Min ([1]; Week 4): 0; HAM-D Item #17 Retardation, improvement in score vs placebo ([1]; by week 4 of treatment): greater improvement in score; short-term plasticity (paired-pulse ratio) [2]: enhanced short-term plasticity; LTP compared to vehicle controls [3]: increased LTP; QIDS-SR Item #10 Change from Baseline, Max ([4]; Week 2): 1; QIDS-SR Item #10 Change from Baseline, Mean (SD) ([4]; Week 2): −0.3 (0.71); QIDS-SR Item #10 Change from Baseline, Median ([4]; Week 2): 0.0; QIDS-SR Item #10 Change from Baseline, Min ([4]; Week 2): −3; QIDS-SR Item #10 score, Max ([4]; Week 2): 3; QIDS-SR Item #10 score, Mean (SD) ([4]; Week 2): 1.5 (0.82); QIDS-SR Item #10 score, Median ([4]; Week 2): 2.0; QIDS-SR Item #10 score, Min ([4]; Week 2): 0; QIDS-SR Item #10 Change from Baseline, Max ([4]; Week 4): 1; QIDS-SR Item #10 Change from Baseline, Mean (SD) ([4]; Week 4): −0.6 (0.80); QIDS-SR Item #10 Change from Baseline, Median ([4]; Week 4): 0.0; QIDS-SR Item #10 Change from Baseline, Min ([4]; Week 4): −3; QIDS-SR Item #10 score, Max ([4]; Week 4): 3; QIDS-SR Item #10 score, Mean (SD) ([4]; Week 4): 1.2 (0.86); QIDS-SR Item #10 score, Median ([4]; Week 4): 1.0; QIDS-SR Item #10 score, Min ([4]; Week 4): 0; QIDS-SR Item #10 Concentration/Decision Making, improvement in score vs placebo ([4]; by week 4 of treatment): greater improvement in score; short-lasting long-term potentiation (S-LTP) [5]: tended to increase; novelty discrimination index (NDI) reduced by scopolamine [6]: significantly improved
